From patent US3968204A, “Antibiotic A-2315” (priority 1975, dated 1976)
≈ marks a conversion by molar mass, not a printed value.

Experiments:
Salmonella typhimurium = test: Agar-dilution MIC; assay type: cell-based; settings: Salmonella enterica, Agar-Dilution Method
Propionibacterium acnes = test: MIC, anaerobic bacteria; assay type: cell-based; settings: Cutibacterium acnes
Streptococcus faecalis = test: Agar-dilution MIC; assay type: cell-based; settings: Enterococcus faecalis; Agar-Dilution Method
Ruminal VFA = test: Ruminal volatile fatty acids in vitro; design: species or system steer; settings: 16 hours, 38°C
From the text: Rumen fluid is obtained from a steer with a surgically-installed fistula opening into the rumen. The steer is maintained on a high-grain ration, the composition of which follows:
A sample of rumen fluid is strained through four layers of cheesecloth, and the filtrate is collected. The particulate matter retained by the cheesecloth is resuspended in enough physiological buffer to return it to the original volume of the rumen fluid, and this suspension is strained again. The buffer used has the following composition:
The two filtrates are combined and allowed to stand until particulate matter separates to the top. The clear layer is separated, diluted with the same buffer (1:1) and then adjusted to pH 7.0.
The diluted rumen fluid (10 ml) is placed in a 25-ml flask with 40 mg of the above-described feed, an additional 5 mg of soybean protein, and the test compound. Four replicate flasks are used per treatment. Two sets of four control flasks each are also employed. A zero-time control and an incubated 16-hour control are used. All test flasks are incubated for 16 hours at 38°C. After incubation, the pH is measured; and 25 percent metaphosphoric acid (2 ml) is added to each flask. The samples are allowed to settle, and the supernatant is analyzed by gas chromatography for propionate, acetate, butyrate compounds.
Test-compound results are statistically compared with control results.

Clostridium perfringens = test: microbe, parasite or virus in culture; assay type: cell-based
[1] = system: anthracnose (Colletotrichum lagenarium); assay type: in vivo; settings: 400 ppm
From the text: In yet another aspect of the invention, the A-2315 antibiotics are useful as plant-fungicidal agents.

[2] = system: Peptostreptococcus intermedius; test: MIC, anaerobic bacteria; assay type: cell-based
Actinomyces bovis = test: MIC, anaerobic bacteria; assay type: cell-based
Streptococcus pyogenes = test: Protection of mice against experimental bacterial infection; assay type: in vivo; settings: sc, subcutaneous, two doses
Experimental: When two doses each of A-2315 factors were administered to mice in illustrative infections, the ED50 values [effective dose in mg/kg to protect 50 percent of the test aninals; see Warren Wick, et al., J. Bacteriol.

[3] = system: Mycoplasma gallisepticum isolate 41313 (tylosin resistant); test: Broth-dilution MIC; assay type: cell-based; settings: Mycoplasmoides gallisepticum
From the text: (§1) Another useful property of the A-2315 antibiotics is activity against Mycoplasma gallisepticum, an organism pathogenic for poultry. Of particular interest is the activity of the A-2315 antibiotics against strains of this organism that are resistant to tylosin. The minimal inhibitory concentrations of A-2315 factor A, as determined by in vitro broth-dilution studies, are summarized in Table V below: […]

[4] = system: Mycoplasma gallisepticum isolate 38502 (tylosin sensitive); test: Broth-dilution MIC; assay type: cell-based; settings: Mycoplasmoides gallisepticum
From the text: as §1

[5] = system: Mycoplasma gallisepticum isolate 43480 (tylosin resistant); test: Broth-dilution MIC; assay type: cell-based; settings: Mycoplasmoides gallisepticum
From the text: as §1

[6] = system: Mycoplasma gallisepticum isolate 42854 (tylosin resistant); test: Broth-dilution MIC; assay type: cell-based; settings: Mycoplasmoides gallisepticum
From the text: as §1

[7] = system: Mycoplasma gallisepticum isolate 34159 (tylosin resistant); test: Broth-dilution MIC; assay type: cell-based; settings: Mycoplasmoides gallisepticum
From the text: as §1

[8] = system: Staphylococcus aureus 3130; test: Disc-plate MIC; settings: Disc-Plate Method; benzylpenicillin-resistant, methicillin-resistant
[9] = system: Staphylococcus aureus 3074; test: Disc-plate MIC; settings: Disc-Plate Method; benzylpenicillin-resistant, methicillin-resistant
Sarcina lutea = test: Disc-plate MIC; settings: Disc-Plate Method
Clostridium inocuum = test: MIC, anaerobic bacteria; assay type: cell-based
Treponema hyodysenteriae = test: Agar-dilution MIC, anaerobe; assay type: cell-based; settings: Brachyspira hyodysenteriae; agar-dilution method; anaerobic
From the text: The A-2315 antibiotics are also active against anaerobic bacteria. In one aspect of this activity, the A-2315 antibiotics are active against Treponema hyodysenteriae, a cause of swine dysentery. The minimal concentrations of A-2315 factors which inhibit this organism, as determined by the agar-dilution method, are as follows: […]

[10] = system: Staphylococcus aureus 3055; test: Agar-dilution MIC; assay type: cell-based; settings: Agar-Dilution Method, benzylpenicillin-susceptible
Acute toxicity in mice = assay type: in vivo
Experimental: The acute toxicity of antibiotic A-2315 factor A, administered either orally or subcutaneously to mice and expressed as LDo, is greater than 500 mg./kg. The acute toxicities of the A-2315 factors, administered intraperitoneally to mice and expressed as LD50 are as follows: […]

[11] = 0.1 mcg per ml diluted rumen fluid
[12] = 0.3 mcg per ml diluted rumen fluid
[13] = 1.0 mcg per ml diluted rumen fluid

CC1=CC(O)CC(O)Cc2nc(co2)C(=O)NC(C)C(=O)OC(C(C)C)C(C)C=CC(=O)NCC=C1 (centres unmarked) [Factor A]
solubility in organic solvents (Solubility): soluble
solubility in water (Solubility): only slightly soluble
MIC (Salmonella typhimurium): > 100 µg/mL
MIC (Propionibacterium acnes): 8 µg/mL (≈ 15.9 µM)
MIC (Streptococcus faecalis): 1.56 µg/mL (≈ 3.1 µM)
Acetate, ratio of VFA concentration treated to control (Ruminal VFA; [11]): 0.97
Butyrate, ratio of VFA concentration treated to control (Ruminal VFA; [11]): 1.01
Propionate, ratio of VFA concentration treated to control (Ruminal VFA; [11]): 1.07
Total VFA, ratio of concentration treated to control (Ruminal VFA; [11]): 1.04
Acetate, ratio of VFA concentration treated to control (Ruminal VFA; [12]): 0.95
Butyrate, ratio of VFA concentration treated to control (Ruminal VFA; [12]): 1.00
Propionate, ratio of VFA concentration treated to control (Ruminal VFA; [12]): 1.08
Total VFA, ratio of concentration treated to control (Ruminal VFA; [12]): 1.07
Acetate, ratio of VFA concentration treated to control (Ruminal VFA; [13]): 0.95
Butyrate, ratio of VFA concentration treated to control (Ruminal VFA; [13]): 1.04
Propionate, ratio of VFA concentration treated to control (Ruminal VFA; [13]): 1.15
Total VFA, ratio of concentration treated to control (Ruminal VFA; [13]): 1.05
MIC (Clostridium perfringens): 32 µg/mL (≈ 63.5 µM)
protection of cucumber plants [1]: moderate protection
phytotoxicity ([1]; cucumber plants): Only slight phytotoxicity
MIC [2]: 8 µg/mL (≈ 15.9 µM)
MIC (Actinomyces bovis): 16 µg/mL (≈ 31.8 µM)
ED50 (Streptococcus pyogenes; Test I, challenge 10,000 × LD50 (ip)): 83 mg/kg
ED50 (Streptococcus pyogenes; Test II): 27.4 mg/kg
MIC [3]: 0.78 µg/mL (≈ 1.55 µM)
MIC [4]: < 0.097 µg/mL
MIC [5]: < 0.097 µg/mL
MIC [6]: 0.195 µg/mL (≈ 0.387 µM)
MIC [7]: 0.195 µg/mL (≈ 0.387 µM)
MIC [8]: 0.2 μg/disc
MIC [9]: 0.4 μg/disc
MIC (Sarcina lutea): 0.008 μg/disc
MIC (Clostridium inocuum): 32 µg/mL (≈ 63.5 µM)
MIC (Treponema hyodysenteriae): < 0.195 µg/mL
MIC [10]: 6.25 µg/mL (≈ 12.4 µM)
LD50 (Acute toxicity in mice; mouse, in vivo, ip, intraperitoneally): > 400 mg/kg
acute toxicity, LDo (Acute toxicity in mice; orally): greater than 500 mg./kg.
acute toxicity, LDo (Acute toxicity in mice; subcutaneously): greater than 500 mg./kg.
